32 compounds from patent US20050245563A1 (Millennium Pharmaceuticals, Inc., priority 2003, published 2005) can be followed below.

The test has as its target T1, human Chk1 (GST-Chk1) (Homo sapiens, UniProt O14757).
T1 construct: made in house; host or cells: insect cells (baculovirus, Bac-to-Bac)
T1 sequence (O14757 1-476): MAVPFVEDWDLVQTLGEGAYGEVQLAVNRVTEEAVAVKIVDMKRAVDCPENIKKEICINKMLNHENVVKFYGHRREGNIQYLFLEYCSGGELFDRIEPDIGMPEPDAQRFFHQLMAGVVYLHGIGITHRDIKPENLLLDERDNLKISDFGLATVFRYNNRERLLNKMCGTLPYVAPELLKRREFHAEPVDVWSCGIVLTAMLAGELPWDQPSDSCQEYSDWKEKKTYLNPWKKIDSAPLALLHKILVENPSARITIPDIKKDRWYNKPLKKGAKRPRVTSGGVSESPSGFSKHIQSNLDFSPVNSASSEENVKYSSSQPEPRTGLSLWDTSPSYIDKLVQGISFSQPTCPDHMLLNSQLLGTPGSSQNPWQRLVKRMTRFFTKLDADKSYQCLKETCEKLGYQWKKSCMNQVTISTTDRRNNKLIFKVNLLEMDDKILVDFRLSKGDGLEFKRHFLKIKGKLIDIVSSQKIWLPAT
Briefly: Chk1 FlashPlate kinase assay. It counts as biochemical. The settings on record: 8.7 nM GST-Chk1, 1 uM ATP, 33P incorporation into peptide substrate. As for the experimental part:
Recombinant human Chk1 was expressed as a fusion protein with glutathione S-transferase at the amino-terminus (GST-Chk1) using standard baculovirus vectors and (Bac-to-Bac®) insect cell expression system purchased from GIBCO™ Invitrogen. Recombinant protein expressed in insect cells was purified using glutathione sepharose (Amersham Biotech) using standard procedures described by the manufacturer.
Chk1 FlashPlate® Kinase Assay:
Assays (25 μL) contained 8.7 nM GST-Chk1, 10 mM MES, 0.1 mM ethylene glycol-bis(β-aminoethylether)-N,N,N′,N′-tetracetic acid (EGTA, pH 8.0), 2 mM DTT, 0.05% Tween 20, 3 uM peptide substrate (Biotin-ILSRRPSYRKILND-free acid) (SEQ ID NO: 1), 1 uM ATP, 0.4 uCi ^33P-γ-ATP (NEN), 4% DMSO. Reactions were incubated for 30 minutes at room temperature, terminated with 50 μL of 50 mM EDTA and 90 μL were transferred to streptavidin-coated FlashPlates® (NEN) and incubated for 1 hour at room temperature. Plates were washed with phosphate buffered salaine containing 0.01% Tween-20 and 10 mM sodium pyrophosphate. Plates were dried, sealed with Topseal™ (NEN) and amount of ^33P incorporated into the peptide substate measure using a Packard Topcount® NXT™ scintillation counter with standard settings.

`Cc1[nH]nc2c1c(=O)n(CCCNC(=O)OCc1ccccc1Cl)c1ccccc21` [Example 80, [3-(3-Methyl-4-oxo-2,4-dihydro-pyrazolo[4,3-c]quinolin-5-yl)-propyl]-carbamic acid 2-chloro-benzyl ester]: the IC50 (commonly the concentration at which inhibition is half-maximal) was less than 1000 nM.
`Cc1n[nH]c2c1c(=O)n(CC1CCNCC1)c1ccc(Br)cc21` [Example 39, 8-Bromo-3-methyl-5-piperidin-4-ylmethyl-1,5-dihydro-pyrazolo[4,3-c]quinolin-4-one] registered a half-maximal inhibitory concentration (IC50) of less than 1000 nM.
Then `Cc1[nH]nc2c1c(=O)n(CCNC(=O)C1CCCC1)c1ccccc21` [Example 94, Cyclopentanecarboxylic acid [2-(3-methyl-4-oxo-2,4-dihydro-pyrazolo[4,3-c]quinolin-5-yl)-ethyl]-amide], with 1000 to 20000 nM.
Under `Cc1n[nH]c2c1c(=O)n(CCCNC(=O)Nc1ccccc1)c1ccccc21` [Example 66, 1-[3-(3-Methyl-4-oxo-1,4-dihydro-pyrazolo[4,3-c]quinolin-5-yl)-propyl]-3-phenyl-urea] stands less than 1000 nM.
Then `COc1ccc(C(=O)NCCn2c(=O)c3c(C)[nH]nc3c3ccccc32)cc1` [Example 91, 4-Methoxy-N-[2-(3-methyl-4-oxo-2,4-dihydro-pyrazolo[4,3-c]quinolin-5-yl)-ethyl]-benzamide], with 1000 to 20000 nM; and `COC(=O)CCCn1c(=O)c2c(C)n[nH]c2c2cc(Br)ccc21` [Example 17, 4-(8-Bromo-3-methyl-4-oxo-1,4-dihydro-pyrazolo[4,3-c]quinolin-5-yl)-butyric acid methyl ester], with less than 1000 nM; and `Cc1n[nH]c2c1c(=O)n(Cc1cccnc1)c1ccccc21` [Example 2, 3-Methyl-5-pyridin-3-ylmethyl-1,5-dihydro-pyrazolo[4,3-c]quinolin-4-one], with 1000 to 20000 nM.
Compound `Cc1n[nH]c2c1c(=O)n(CCCNCCc1ccccc1)c1ccccc21` [Example 51, 3-Methyl-5-(3-phenethylamino-propyl)-1,5-dihydro-pyrazolo[4,3-c]quinolin4-one] registered an IC50 of less than 1000 nM.
Then `COc1ccc2c(c1)c1n[nH]c(C)c1c(=O)n2CCCNC(=O)OC(C)(C)C` [Example 79, [3-(8-Methoxy-3-methyl-4-oxo-2,4-dihydro-pyrazolo[4,3-c]quinolin-5-yl)-propyl]-carbamic acid tert-butyl ester], with less than 1000 nM.
The compound `Cc1[nH]nc2c1c(=O)n(CCCNC(=O)C(N)CCCCN)c1ccccc21` (centres unmarked) [Example 123, 2,6-Diamino-hexanoic acid [3-(3-methyl-4-oxo-2,4-dihydro-pyrazolo[4,3-c]quinolin-5-yl)-propyl]-amide] had a concentration for half-maximal inhibition (IC50) of less than 1000 nM.
`Cc1[nH]nc2c1c(=O)n(CCCNC(=O)C(Cc1ccc(F)cc1)NC(=O)OC(C)(C)C)c1ccccc21` (centres unmarked) [Example 95, {2-(4-Fluoro-phenyl)-1-[3-(3-methyl-4-oxo-2,4-dihydro-pyrazolo[4,3-c]quinolin-5-yl)-propylcarbamoyl]-ethyl}-carbamic acid tert-butyl ester] yielded an IC50 of 1000 to 20000 nM.
Then `Cc1[nH]nc2c1c(=O)n(CCCNC(=O)[C@@H](N)Cc1ccc(F)cc1)c1ccccc21` [Example 104, 2-Amino-3-(4-fluoro-phenyl)-N-[3-(3-methyl-4-oxo-2,4-dihydro-pyrazolo[4,3-c]quinolin-5-yl)-propyl]-propionamide], with less than 1000 nM; and `Cc1n[nH]c2c1c(=O)n(CCCNC(=O)OC(C)(C)C)c1ccc(Br)cc21` [Example 56, [3-(8-Bromo-3-methyl-4-oxo-1,4-dihydro-pyrazolo[4,3-c]quinolin-5-yl)-propyl]-carbamic acid tert-butyl ester], with less than 1000 nM.
Under `Cc1[nH]nc2c1c(=O)n(CCCNC(=O)CCc1ccccc1)c1ccccc21` [Example 62, N-[3-(3-Methyl-4-oxo-2,4-dihydro-pyrazolo[4,3-c]quinolin-5-yl)-propyl]-3-phenyl-propionamide] stands less than 1000 nM; under `Cc1n[nH]c2c1c(=O)n(CCCNC(=O)OCc1ccccc1)c1ccc(Br)cc21` [Example 43, [3-(8-Bromo-3-methyl-4-oxo-1,4-dihydro-pyrazolo[4,3-c]quinolin-5-yl)-propyl]-carbamic acid benzyl ester], less than 1000 nM.
Then `Cc1n[nH]c2c1c(=O)n(CC(N)Cc1ccccc1)c1ccccc21` (centres unmarked) [Example 23, 5-(2-Amino-3-phenyl-propyl)-3-methyl-1,5-dihydro-pyrazolo[4,3-c]quinolin-4-one], with more than 20000 nM.
With `Cc1[nH]nc2c1c(=O)n(CCCNC(=O)C(N)Cc1ccc(O)cc1)c1ccccc21` (centres unmarked) [Example 108, 2-Amino-3-(4-hydroxy-phenyl)-N-[3-(3-methyl-4-oxo-2,4-dihydro-pyrazolo[4,3-c]quinolin-5-yl)-propyl]-propionamide], the 50% inhibitory concentration (IC50) is less than 1000 nM.
In the case of `COc1ccc2c(c1)c1n[nH]c(C)c1c(=O)n2CCCN` [Example 58], the IC50 is less than 1000 nM.
Compound `Cc1[nH]nc2c1c(=O)n(CCCNC(=O)c1ccc([N+](=O)[O-])cc1)c1ccccc21` [Example 61, N-[3-(3-Methyl-4-oxo-2,4-dihydro-pyrazolo[4,3-c]quinolin-5-yl)-propyl]-4-nitro-benzamide] came in with an IC50 of less than 1000 nM.
In turn, `Cc1n[nH]c2c1c(=O)n(CCCOCc1ccccc1)c1ccccc21` [Example 12, 5-(3-Benzyloxy-propyl)-3-methyl-1,5-dihydro-pyrazolo[4,3-c]quinolin-4-one] gave a concentration for half-maximal inhibition (IC50) of less than 1000 nM.
Then `Cc1n[nH]c2c1c(=O)n(CCNC(=O)C(N)Cc1ccccc1)c1ccccc21` (centres unmarked) [Example 105, 2-Amino-N-[2-(3-methyl-4-oxo-1,4-dihydro-pyrazolo[4,3-c]quinolin-5-yl)-ethyl]-3-phenyl-propionamide], with less than 1000 nM.
With `Cc1n[nH]c2c1c(=O)n(CCCNC(=O)c1ccccc1)c1ccccc21` [Example 73, N-[3-(3-Methyl-4-oxo-1,4-dihydro-pyrazolo[4,3-c]quinolin-5-yl)-propyl]-benzamide], the concentration for half-maximal inhibition (IC50) is less than 1000 nM.
`CCCCNc1ccc2c(c1)c1n[nH]c(C)c1c(=O)n2CCCN` [Example 116] showed an IC50 of less than 1000 nM.
With `Cc1n[nH]c2c1c(=O)n(CCCC(=O)O)c1ccc(Br)cc21` [Example 19, 4-(8-Bromo-3-methyl-4-oxo-1,4-dihydro-pyrazolo[4,3-c]quinolin-5-yl)-butyric acid], the IC50 is less than 1000 nM.
The compound `Cc1ccc2c(c1)c1n[nH]c(C)c1c(=O)n2CCCNC(=O)OC(C)(C)C` [Example 44, [3-(3,8-Dimethyl-4-oxo-2,4-dihydro-pyrazolo[4,3-c]quinolin-5-yl)-propyl]-carbamic acid tert-butyl ester] registered a half-maximal inhibitory concentration (IC50) of less than 1000 nM.
The compound `Cc1n[nH]c2c1c(=O)n(CCCO)c1ccccc21` [Example 14, 5-(3-Hydroxy-propyl)-3-methyl-1,5-dihydro-pyrazolo[4,3-c]quinolin-4-one] gave an IC50 of less than 1000 nM.
Under `Cc1[nH]nc2c1c(=O)n(CCCNC(=O)c1ccc(N(C)C)cc1)c1ccccc21` [Example 78, 4-Dimethylamino-N-[3-(3-methyl-4-oxo-2,4-dihydro-pyrazolo[4,3-c]quinolin-5-yl)-propyl]-benzamide] stands less than 1000 nM; under `Cc1n[nH]c2c1c(=O)n(C[C@@H](C)CNC(=O)OC(C)(C)C)c1ccc(Br)cc21` [Example 46, [3-(8-Bromo-3-methyl-4-oxo-1,4-dihydro-pyrazolo[4,3-c]quinolin-5-yl)-2-S-methyl-propyl]-carbamic acid tert-butyl ester], less than 1000 nM.
Under `Cc1n[nH]c2c1c(=O)n(CCCC(=O)NCc1ccc(Cl)cc1)c1ccc(Br)cc21` [Example 22, 4-(8-Bromo-3-methyl-4-oxo-1,4-dihydro-pyrazolo[4,3-c]quinolin-5-yl)-N-(4-chloro-benzyl)-butyramide] stands less than 1000 nM; under `Cc1n[nH]c2c1c(=O)n(CCCNC(=O)c1ccc(Cl)cc1)c1ccc(Cl)cc21` [Example 40, 4-Chloro-N-[3-(8-chloro-3-methyl-4-oxo-1,4-dihydro-pyrazolo[4,3-c]quinolin-5-yl)-propyl]-benzamide], less than 1000 nM.
Then `Cc1[nH]nc2c1c(=O)n(CCCNC(=O)c1ccc(C(F)(F)F)cc1)c1ccccc21` [Example 72, N-[3-(3-Methyl-4-oxo-2,4-dihydro-pyrazolo[4,3-c]quinolin-5-yl)-propyl]-4-trifluoromethyl-benzamide], with less than 1000 nM.
Compound `Cc1[nH]nc2c1c(=O)n(CCCN)c1ccc(N3CCCC3)cc21` [Example 120] gave a half-inhibitory concentration (IC50) of less than 1000 nM.
